In series [1] the test system is isolated rat aorta. Put plainly: Vasodilating effect on blood vessel excised from rats (methoxamine-constricted aorta). Particulars: isolated rat aorta constricted with methoxamine (3 μM); read-out: Concentration for inhibition of constriction induced by methoxamine in rat arota (IC50). The text has this:
Rats (350˜450 g, obtained from the Experimental Animal Team of the Korea Research Institute of Chemical Technology) were knocked to be unconscious by hitting the occipital region, sacrificed by cervical dislocation, and underwent thoracotomy. After being quickly removed, the thoracic aorta was deprived of the adipose tissue and cut into aortic rings of 3 mm width. The aorta was lightly rubbed with cotton club soaked in a modified Krebs Henseleit buffer (Physiological salt solution) to remove the inner epithelial layer therefrom. While being hung in an organ bath containing a physiological buffer, the vascular smooth muscle was allowed to equilibrate under a resting tension of 2 g and then, stand for 1 hour at 37° C. for stabilization, supplying a carbogen consisting of 95% O2˜5% CO2.
Thereafter, the vascular smooth muscle was constricted with 10^−5M phenylephrine and washed several times with physiological saline solution. The said procedure was repeated again to ensure the stable reactivity of vascular smooth muscle to repetitive constriction/relaxation.
Thereafter, 3×10^−6 M methoxamine was applied to induce an intensive constriction in the vascular smooth muscle. When the vasoconstriction induced by the methoxamine was reached and maintained to a maximum, test compounds and control material was cumulatively added to the organ bath in concentration of 1, 3, 10 and 30 μM, respectively, to examine the vasodilating effect. Cromakalim, BMS-180448 (the compound of formula 4) and BMS-191095 (the compound of formula 5), known to be the first generation KATP opener with potent vasodilating effect were used as control materials.
The change rate of constriction by the addition of the drugs compared to the maximal constriction induced by methoxamine was calculated to plot a concentration-relaxation response curve. Through a least linear regression analysis, IC50 that the drug concentration at which the vascular tissue is relaxed to 50% extent of the maximal constriction, was obtained for each drug.

In series [2] the test system is cortical neuron cells. Put plainly: Protective effect on iron-induced neuronal cell injury (LDH release). Format: cell-based. Particulars: FeSO4 50 μM; for protective effect on neuron cell: Inhibition (%, 30 μM compound addition): LDH reduction vs control; for IC50: LDH. Here is the method: From the brains of 17˜18 day-old embryos, cortical neuron cells were isolated and then, cultured at 37° C. for 7˜9 days in a 5% CO2 incubator. The said cortical cell cultures were washed twice with MEM (Minimum essential medium) to reduce the serum level to 0.2%. […] Then, the compound of the said concentration was pre-treated for 30 min, respectively. For the experiment, test compound was dissolved in DMSO and diluted in a medium. At this time, the final concentration of DMSO was not allowed to exceed 0.1%. For control group, only vehicle was applied.
After the said pre-treatment, FeSO4 was added to the medium for a final concentration to be 50 μM. The medium was cultured in CO2 incubator for 24 hours. During the incubation, lactate dehydrogenase (LDH) was released by iron. The serum level of lactate dehydrogenase released into the medium was measured to assess necrosis of neuronal cell by the oxidative toxicity of iron. The protective effect on neuron cells of the test compounds was evaluated by calculating the LDH reduction rate of treatment-group compared with that of the control group.
In general terms: LDH leaks from cells whose membrane has failed.

Series [3] is described as follows: Acute oral toxicity test in rats. The following applies: SD, rat, in vivo, single oral dose, suspended in 0.5% methyl cellulose, read-out: lethal dose (LD50) for oral administration. The protocol: In this test, six-week old SPF SD rats were used with two rats assigned to each group. Each group was consisted of two rats. The compounds prepared in example 1, 7, 11, 17, 22, 24, 26, 28, 30, 32, 34, 42, 52, 54, 55, 56, 57, 59, 60, 61, 70, 75, 77, 79, 81, 83, 85, and 89 were suspended in 0.5% methyl cellulose, respectively. […] Also, hematological test and biochemical analysis were accomplished. After sacrificing the animals, autopsy was performed for macroscopic observations of the organs and tissues. As a result, there was no significant changes in clinical symptoms, body weight and mortalities. Also in hematology, serum chemistry parameters, macroscopic observation and drug-related changes were not observed.

Bounds are passed on as bounds.

On to `COC(OC)[C@@]1(C)Oc2ccc(N)cc2[C@@H](N(Cc2nnn(C)n2)c2ccc(Cl)cc2)[C@@H]1O` [Example 10, (2S,3S,4R)-6-amino-4-[N-(4-chlorophenyl)-N-(2-methyl-2H-tetrazol-5-ylmethyl)amino]-3-hydroxy-2-methyl-2-dimethoxymethyl-3,4-dihydro-2H-1-benzopyran], for which the IC50 in series [1] is over 30 µM; in series [2] (Cortical neurone, 24 h), 2200 nM. In series [2] (24 hours), the “protective effect on neuron cell: Inhibition (%, 30 μM compound addition)” value stood at 103%.
Turning to `COC(OC)[C@@]1(C)Oc2ccc([N+](=O)[O-])cc2[C@H](N(Cc2nnn(C)n2)c2ccc(OC(F)(F)F)cc2)[C@H]1O` [Example 31, (2S,3R,4S)-6-nitro-4-[N-(4-trifluoromethoxyphenyl)-N-(2-methyl-2H-tetrazol-5-ylmethyl)amino]-3-hydroxy-2-methyl-2-dimethoxymethyl-3,4-dihydro-2H-1-benzopyran], the IC50 in series [1] is over 30 µM; in series [2] (Cortical neurone, 24 h), under 2000 nM; in series [2] (24 hours), 1800 nM. Moreover, in series [2] (24 hours), the “protective effect on neuron cell: Inhibition (%, 30 μM compound addition)” value worked out at 86%.
As to `CC1(C)Oc2ccc(C#N)cc2C(N2CCCC2=O)C1O` (centres unmarked) [Cromakalim, reference compound], the IC50 in series [1] amounted to 0.067 µM.
With `COC(OC)[C@]1(C)Oc2ccc(N)cc2[C@H](N(Cc2nnn(C)n2)c2ccc(C(F)(F)F)cc2)[C@H]1O` [Example 79, (2R,3R,4S)-6-amino-4-[N-(4-trifluoromethylphenyl)-N-(2-methyl-2H-tetrazol-5-ylmethyl)amino]-3-hydroxy-2-methyl-2-dimethoxymethyl-3,4-dihydro-2H-1-benzopyran], in series [3], the LD50 was over 2000 mg/kg. In series [2] (24 hours), the “protective effect on neuron cell: Inhibition (%, 30 μM compound addition)” value turned out to be 107% and the IC50 amounted to 1700 nM. The same molecule returned an IC50 in series [2] (Cortical neurone, 24 h) of under 2000 nM.
`COC(OC)[C@@]1(C)Oc2ccc([N+](=O)[O-])c(C)c2[C@@H](N(Cc2nnn(C)n2)c2ccc(Cl)cc2)[C@@H]1O` [Example 98, (2S,3S,4R)-6-nitro-5-methyl-4-[N-(4-chlorophenyl)-N-(2-methyl-2H-tetrazol-5-ylmethyl)amino]-3-hydroxy-2-methyl-2-dimethoxymethyl-3,4-dihydro-2H-1-benzopyran]: the IC50 in series [1] amounted to 7.34 µM; in series [2] (Cortical neurone, 24 h), 10500 nM. In addition, the “protective effect on neuron cell: Inhibition (%, 30 μM compound addition)” value in series [2] (24 hours) is on record as 85%.
With `COC(OC)[C@@]1(C)Oc2ccc(N)cc2[C@@H](N(Cc2nnn(C)n2)c2cccc(Cl)c2)[C@@H]1O` [Example 22, (2S,3S,4R)-6-amino-4-[N-(3-chlorophenyl)-N-(2-methyl-2H-tetrazol-5-ylmethyl)amino]-3-hydroxy-2-methyl-2-dimethoxymethyl-3,4-dihydro-2H-1-benzopyran], the IC50 is over 30 µM in series [1] and 5900 nM in series [2] (Cortical neurone, 24 h). Further, the LD50 in series [3] is over 2000 mg/kg. The “protective effect on neuron cell: Inhibition (%, 30 μM compound addition)” value in series [2] (24 hours) is 97%.
Consider `COC(OC)[C@@]1(C)Oc2ccc([N+](=O)[O-])cc2[C@H](N(Cc2nnn(C)n2)c2cccc(Cl)c2)[C@H]1O` [Example 25, (2S,3R,4S)-6-nitro-4-[N-(3-chlorophenyl)-N-(2-methyl-2H-tetrazol-5-ylmethyl)amino]-3-hydroxy-2-methyl-2-dimethoxymethyl-3,4-dihydro-2H-1-benzopyran], for which the IC50 in series [1] came out at 27.4 µM. The “protective effect on neuron cell: Inhibition (%, 30 μM compound addition)” value in series [2] (24 hours) came out at 83%.
Regarding `COC(OC)[C@@]1(C)Oc2ccc(N)cc2[C@@H](N(Cc2nnn(C)n2)c2ccc(C(F)(F)F)cc2)[C@@H]1O` [Example 75, (2S,3S,4R)-6-amino-4-[N-(4-trifluoromethylphenyl)-N-(2-methyl-2H-tetrazol-5-ylmethyl)amino]-3-hydroxy-2-methyl-2-dimethoxymethyl-3,4-dihydro-2H-1-benzopyran], the IC50 in series [1] was over 30 µM; in series [2] (Cortical neurone, 24 h) it was under 2000 nM; in series [2] (24 hours), 1800 nM. Moreover, the LD50 in series [3] is over 2000 mg/kg. The “protective effect on neuron cell: Inhibition (%, 30 μM compound addition)” value in series [2] (24 hours) turned out to be 125%.
In the case of `COC(OC)[C@@]1(C)Oc2ccc(N)cc2[C@H](N(Cc2nnn(C)n2)c2ccc(C(F)(F)F)cc2)[C@H]1O` [Example 34, (2S,3R,4S)-6-amino-4-[N-(4-trifluoromethylphenyl)-N-(2-methyl-2H-tetrazol-5-ylmethyl)amino]-3-hydroxy-2-methyl-2-dimethoxymethyl-3,4-dihydro-2H-1-benzopyran], the IC50 in series [1] is over 30 µM; in series [2] (Cortical neurone, 24 h), 1500 nM. Further, in series [3], the LD50 was over 2000 mg/kg. In series [2] (24 hours), the “protective effect on neuron cell: Inhibition (%, 30 μM compound addition)” value is 111%.
Turning to `COC(OC)[C@]1(C)Oc2ccc(N)cc2[C@@H](N(Cc2nnn(C)n2)c2ccc(C(F)(F)F)cc2)[C@@H]1O` [Example 77, (2R,3S,4R)-6-amino-4-[N-(4-trifluoromethylphenyl)-N-(2-methyl-2H-tetrazol-5-ylmethyl)amino]-3-hydroxy-2-methyl-2-dimethoxymethyl-3,4-dihydro-2H-1-benzopyran], the IC50 in series [1] was over 30 µM; in series [2] (Cortical neurone, 24 h) it was under 2000 nM; in series [2] (24 hours), 1900 nM. For the same molecule, in series [3], the LD50 was over 2000 mg/kg. For the same molecule, the “protective effect on neuron cell: Inhibition (%, 30 μM compound addition)” value in series [2] (24 hours) is on record as 111%.
`COC(OC)[C@@]1(C)Oc2ccc(N)cc2[C@H](N(Cc2ccccc2)Cc2nnn(C)n2)[C@H]1O` [Example 57, (2S,3R,4S)-6-amino-4[N-benzyl-N-(2-methyl-2H-tetrazol-5-ylmethyl)amino]-3-hydroxy-2-methyl-2-dimethoxymethyl-3,4-dihydro-2H-1-benzopyran]: the LD50 in series [3] is over 2000 mg/kg. In addition, the “protective effect on neuron cell: Inhibition (%, 30 μM compound addition)” value in series [2] (24 hours) was found to be 94%. The molecule also registered an IC50 in series [2] (Cortical neurone, 24 h) of 3100 nM.
Consider `COC(OC)[C@@]1(C)Oc2ccc(N)cc2[C@H](N(Cc2nnn(C)n2)c2ccc(O)cc2C)[C@H]1O` [Example 65, (2S, 3R,4S)-6-amino-4-[N-(2methyl-4-hydroxyphenyl)-N-(2-methyl-2H-tetrazol-5-ylmethyl)amino]-3-hydroxy-2-methyl-2-dimethoxymethyl-3,4-dihydro-2H-1-benzopyran], for which the IC50 in series [1] was over 30 µM.
On to `COC(OC)[C@@]1(C)Oc2ccc(N)cc2[C@@H](N(Cc2nnn(C)n2)c2ccc(C)cc2)[C@@H]1O` [Example 24], for which the IC50 in series [1] is over 30 µM. Also, in series [2] (24 hours), the “protective effect on neuron cell: Inhibition (%, 30 μM compound addition)” value was found to be 98% and the IC50 came out at 6100 nM.
As for `COC(OC)[C@@]1(C)Oc2ccc(N)cc2[C@H](N(Cc2nnn(C)n2)c2ccccc2)[C@H]1O` [Example 55, (2S,3R,4S)-6-amino-4-[N-(2-methyl-2H-tetrazol-5-ylmethyl)phenylamino]-3-hydroxy-2-methyl-2-dimethoxymethyl-3,4-dihydro-2H-1-benzopyran], the LD50 in series [3] is over 2000 mg/kg.
For `COC(OC)[C@]1(C)Oc2ccc([N+](=O)[O-])cc2[C@H](N(Cc2nnn(C)n2)c2ccc(OC(F)(F)F)cc2)[C@H]1O` [Example 82, (2R,3R,4S)-6-nitro-4-[N-(4-trifluoromethoxyphenyl)-N-(2-methyl-2H-tetrazol-5-ylmethyl)amino]-3-hydroxy-2-methyl-2-dimethoxymethyl-3,4-dihydro-2H-1-benzopyran], in series [2] (24 hours), the “protective effect on neuron cell: Inhibition (%, 30 μM compound addition)” value is 69%. Besides, the IC50 in series [2] (Cortical neurone, 24 h) was under 2000 nM; in series [2] (24 hours), 1300 nM.
Regarding `CC1(C)Oc2ccc(C#N)cc2[C@H](N(Cc2ncc[nH]2)c2ccc(Cl)cc2)[C@H]1O` [BMS-191095, reference compound], in series [1], the IC50 came out at 2.14 µM.

Values taken from patent US7414068B2, “Benzopyran derivatives substituted with secondary amines including tetrazole, method for the preparation thereof and pharmaceutical compositions containing them” (Dongbu Hannong Chemical Co., Ltd., priority 2002, dated 2008).
